Biological target: CrGSNOR1 (Chlamydomonas reinhardtii, UniProt A0A2K3D6R4)
Assay: X-ray crystal structure, […] Å
Conditions: co-crystallised with 1 mM NAD^+, pH 8.5; cofactor-binding domain

Sequence of CrGSNOR1 (A0A2K3D6R4 1-378): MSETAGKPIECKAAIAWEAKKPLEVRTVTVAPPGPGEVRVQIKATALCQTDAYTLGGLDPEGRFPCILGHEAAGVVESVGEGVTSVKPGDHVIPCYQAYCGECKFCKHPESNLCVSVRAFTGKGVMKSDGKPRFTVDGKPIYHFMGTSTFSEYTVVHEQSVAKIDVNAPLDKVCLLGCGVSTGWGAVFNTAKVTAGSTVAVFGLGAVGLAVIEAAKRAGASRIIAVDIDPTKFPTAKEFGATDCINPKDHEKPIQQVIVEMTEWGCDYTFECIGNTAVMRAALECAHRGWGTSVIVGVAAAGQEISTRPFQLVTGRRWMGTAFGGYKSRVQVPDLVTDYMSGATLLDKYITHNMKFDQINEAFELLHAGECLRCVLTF

## NC(=O)c1ccc[n+]([C@@H]2O[C@H](COP(=O)(O)OP(=O)(O)OC[C@H]3O[C@@H](n4cnc5c(N)ncnc54)[C@H](O)[C@@H]3O)[C@@H](O)[C@H]2O)c1 [NAD^+]
  X-ray crystal structure, 2.3 Å: crystal structure of CrGSNOR1 under both apo- and holo-form (NAD^+-CrGSNOR1)

Source: article PMC7744773 (Redox Biology, 2020)
